The values that follow are results of earlier work, collected in patent US20110256072A1, “FOOD AND COMPOSITION EACH COMPRISING PHOSPHORYLATED SACCHARIDE, POLYPHENOL AND FLUORIDE” (EZAKI GLICO CO., LTD., priority 2008, published 2011).

Values joined by “and” are separate entries in the source; they are usually repeats but may differ in a detail not shown here. Equal entries are not always repeated. Where two headings read alike, the source gives them in different places.

The data set has as its system dental caries.

Regarding `[F-].[Na+]` [2% Sodium fluoride solution, Sodium fluoride], where the note is “in vivo”, the Inhibition rate is given as 20-40%.

For `[F-].[Na+]` [Sodium fluoride], the Inhibition rate (in vivo) was 25-50% and 20-40% and ~30%.

Regarding `[F-].[Na+]` [NaF: 0.05% every day method, NaF], the Inhibition rate (Fluoride mouth washing method, 226 ppm, Permanent tooth) was 20-50%.

In the case of `[F][Sn][F]` [SnF2: 8% Solution, SnF2], where the note is “Local application to dental surface, 19,400 ppm, Permanent tooth”, the Inhibition rate was 20-50%.
